Laboratory results from ChEMBL document CHEMBL5104131, “Pyrimidine-conjugated fluoroquinolones as new potential broad-spectrum antibacterial agents” (Bioorg Med Chem Lett, 2022).
≈ marks a conversion by molar mass, not a printed value. Calls of active or inactive are those of the source. The calls are words filed in the database; no cut-off is given here.

Assays:
Escherichia coli [1] = experiment: Antibacterial activity against Escherichia coli assessed as bacterial growth inhibition by serial dilution method; type: functional
Klebsiella pneumoniae = experiment: Antibacterial activity against Klebsiella pneumoniae assessed as bacterial growth inhibition by serial dilution method; type: functional
Pseudomonas aeruginosa [2] = experiment: Antibacterial activity against Pseudomonas aeruginosa ATCC 27853 assessed as bacterial growth inhibition by serial dilution method; type: functional
Staphylococcus aureus [3] = experiment: Antibacterial activity against methicillin-resistant Staphylococcus aureus N315 assessed as bacterial growth inhibition by serial dilution method; type: functional
Staphylococcus aureus [4] = experiment: Antibacterial activity against Staphylococcus aureus assessed as bacterial growth inhibition by serial dilution method; type: functional
Staphylococcus aureus [5] = experiment: Antibacterial activity against Staphylococcus aureus ATCC 29213 assessed as bacterial growth inhibition by serial dilution method; type: functional
Staphylococcus aureus [6] = experiment: Antibacterial activity against Staphylococcus aureus ATCC 25923 assessed as bacterial growth inhibition by serial dilution method; type: functional
Pseudomonas aeruginosa [7] = experiment: Antibacterial activity against Pseudomonas aeruginosa assessed as bacterial growth inhibition by serial dilution method; type: functional
Enterococcus faecalis [8] = experiment: Antibacterial activity against Enterococcus faecalis assessed as bacterial growth inhibition by serial dilution method; type: functional
Escherichia coli [9] = experiment: Antibacterial activity against Escherichia coli ATCC 25922 assessed as bacterial growth inhibition by serial dilution method; type: functional
Acinetobacter baumannii = experiment: Antibacterial activity against Acinetobacter baumannii assessed as bacterial growth inhibition by serial dilution method; type: functional
Candida tropicalis = experiment: Antifungal activity against Candida tropicalis assessed as inhibition of fungal growth; type: functional
Calf thymus DNA [10] = experiment: Binding affinity to calf thymus DNA assessed as DNA-compound complex formation by measuring hyperchromicity by UV-Vis spectrophotometric analysis; type: tissue-based; details: Bos taurus
Enterococcus faecalis [11] = experiment: Bactericidal activity against Enterococcus faecalis assessed as log reduction in bacterial colony count at 1 times MIC measured after 6 hrs; type: functional
Calf thymus DNA [12] = experiment: Binding affinity to calf thymus DNA assessed as reduction in acridine orange-DNA complex formation by competitive binding assay; details: Bos taurus
[13] = Induction of intracellular ROS accumulation in Enterococcus faecalis assessed as fold increase in fluorescence intensity at 8 times MIC by DCFH-DA dye based fluorescence assay; type: functional
Staphylococcus aureus [14] = experiment: Potency index, ratio of norfloxacin MIC to test compound MIC for antibacterial activity against Staphylococcus aureus ATCC 25923 assessed as bacterial growth inhibition by serial dilution method; type: functional
Staphylococcus aureus [15] = experiment: Potency index, ratio of norfloxacin MIC to test compound MIC for antibacterial activity against Staphylococcus aureus ATCC 29213 assessed as bacterial growth inhibition by serial dilution method; type: functional
[16] = Cytotoxicity against human HaCaT cells assessed as cell viability at 12.5 ug/ml by CCK-8 assay relative to control; type: toxicity, cell-based; details: at 12.5 µg/mL, read-out: Activity
[17] = Cytotoxicity against human HaCaT cells assessed as cell viability at 50 ug/ml by CCK-8 assay relative to control; type: toxicity, cell-based; details: at 50 µg/mL, read-out: Activity
Calf thymus DNA [18] = experiment: Binding affinity to calf thymus DNA assessed as binding constant by UV-Vis spectrophotometric analysis; details: Bos taurus
Enterococcus faecalis [19] = experiment: Inhibition of biofilm formation in Enterococcus faecalis at 2 ug/ml incubated for 24 hrs by crystal violet staining based analysis relative to control; type: functional
Enterococcus faecalis [20] = experiment: Bactericidal activity against Enterococcus faecalis assessed as log reduction in bacterial colony count at 4 times MIC measured after 6 hrs; type: functional
Enterococcus faecalis [21] = experiment: Potency index, ratio of ciprofloxacin MIC to test compound MIC for antibacterial activity against Enterococcus faecalis assessed as bacterial growth inhibition by serial dilution method; type: functional
Enterococcus faecalis [22] = experiment: Potency index, ratio of norfloxacin MIC to test compound MIC for antibacterial activity against Enterococcus faecalis assessed as bacterial growth inhibition by serial dilution method; type: functional
Calf thymus DNA [23] = experiment: Binding affinity to calf thymus DNA assessed as red shift in absorption peak by UV-Vis spectrophotometric analysis; details: Bos taurus
Aspergillus fumigatus = experiment: Antifungal activity against Aspergillus fumigatus assessed as inhibition of fungal growth; type: functional
Staphylococcus aureus [24] = experiment: Potency index, ratio of norfloxacin MIC to test compound MIC for antibacterial activity against methicillin-resistant Staphylococcus aureus N315 assessed as bacterial growth inhibition by serial dilution method; type: functional
Staphylococcus aureus [25] = experiment: Potency index, ratio of ciprofloxacin MIC to test compound MIC for antibacterial activity against methicillin-resistant Staphylococcus aureus N315 assessed as bacterial growth inhibition by serial dilution method; type: functional

| SMILES | MIC (Escherichia coli [1]) [µg/mL] | MIC (Klebsiella pneumoniae) [µg/mL] | MIC (Pseudomonas aeruginosa [2]) [µg/mL] | MIC (Staphylococcus aureus [3]) [µg/mL] | MIC (Staphylococcus aureus [4]) [µg/mL] | MIC (Staphylococcus aureus [5]) [µg/mL] | MIC (Staphylococcus aureus [6]) [µg/mL] | MIC (Pseudomonas aeruginosa [7]) [µg/mL] | MIC (Enterococcus faecalis [8]) [µg/mL] | MIC (Escherichia coli [9]) [µg/mL] | MIC (Acinetobacter baumannii) [µg/mL] | other results |
| --- | --- | --- | --- | --- | --- | --- | --- | --- | --- | --- | --- | --- |
| Cc1cnc(N2CCN(c3cc4c(cc3F)c(=O)c(C(=O)O)cn4C3CC3)CC2)nc1 | 64 (≈ 151 µM) | > 256 | 256 (≈ 605 µM) | 256 (≈ 605 µM) | 128 (≈ 302 µM) | 64 (≈ 151 µM) | 2 (≈ 4.72 µM) | 2 (≈ 4.72 µM) | 4 (≈ 9.45 µM) | 8 (≈ 18.9 µM) | 128 (≈ 302 µM) | – |
| CCn1cc(C(=O)O)c(=O)c2cc(F)c(N3CCN(c4nccc(C(F)(F)F)n4)CC3)cc21 | > 256 | 128 (≈ 275 µM) | > 256 | > 256 | > 256 | 128 (≈ 275 µM) | 256 (≈ 550 µM) | 128 (≈ 275 µM) | 64 (≈ 138 µM) | 256 (≈ 550 µM) | 128 (≈ 275 µM) | – |
| CCc1cnc(N2CCN(c3cc4c(cc3F)c(=O)c(C(=O)O)cn4C3CC3)CC2)nc1 | 8 (≈ 18.3 µM) | 256 (≈ 585 µM) | 64 (≈ 146 µM) | 128 (≈ 293 µM) | 1 (≈ 2.29 µM) | 64 (≈ 146 µM) | 8 (≈ 18.3 µM) | 4 (≈ 9.14 µM) | 64 (≈ 146 µM) | 4 (≈ 9.14 µM) | 64 (≈ 146 µM) | MIC (Candida tropicalis): 2 µg/mL (≈ 4.57 µM) |
| Cc1ccnc(N2CCN(c3cc4c(cc3F)c(=O)c(C(=O)O)cn4C3CC3)CC2)n1 | 64 (≈ 151 µM) | 64 (≈ 151 µM) | 64 (≈ 151 µM) | 64 (≈ 151 µM) | 256 (≈ 605 µM) | 32 (≈ 75.6 µM) | 4 (≈ 9.45 µM) | 64 (≈ 151 µM) | 64 (≈ 151 µM) | 8 (≈ 18.9 µM) | 2 (≈ 4.72 µM) | – |
| CCn1cc(C(=O)O)c(=O)c2cc(F)c(N3CCN(c4nccc(C)n4)CC3)cc21 | 64 (≈ 156 µM) | 4 (≈ 9.72 µM) | 16 (≈ 38.9 µM) | 32 (≈ 77.8 µM) | 4 (≈ 9.72 µM) | 16 (≈ 38.9 µM) | 4 (≈ 9.72 µM) | 128 (≈ 311 µM) | 1 (≈ 2.43 µM) | 1 (≈ 2.43 µM) | 256 (≈ 622 µM) | – |
| O=C(O)c1cn(C2CC2)c2cc(N3CCN(c4ncc(Br)cn4)CC3)c(F)cc2c1=O | 64 (≈ 131 µM) | 128 (≈ 262 µM) | 32 (≈ 65.5 µM) | 128 (≈ 262 µM) | 16 (≈ 32.8 µM) | 8 (≈ 16.4 µM) | 16 (≈ 32.8 µM) | 16 (≈ 32.8 µM) | 128 (≈ 262 µM) | 128 (≈ 262 µM) | 32 (≈ 65.5 µM) | – |
| CCn1cc(C(=O)O)c(=O)c2cc(F)c(N3CCN(c4ncc(Br)cn4)CC3)cc21 | 64 (≈ 134 µM) | 256 (≈ 537 µM) | 64 (≈ 134 µM) | 128 (≈ 269 µM) | 8 (≈ 16.8 µM) | 64 (≈ 134 µM) | 64 (≈ 134 µM) | 8 (≈ 16.8 µM) | 64 (≈ 134 µM) | 128 (≈ 269 µM) | 64 (≈ 134 µM) | – |
| CCn1cc(C(=O)O)c(=O)c2cc(F)c(N3CCNCC3)cc21 [NORFLOXACIN] | 8 (≈ 25.1 µM) | 4 (≈ 12.5 µM) | 4 (≈ 12.5 µM) | 8 (≈ 25.1 µM) | 4 (≈ 12.5 µM) | 4 (≈ 12.5 µM) | 2 (≈ 6.26 µM) | 4 (≈ 12.5 µM) | 4 (≈ 12.5 µM) | 8 (≈ 25.1 µM) | 2 (≈ 6.26 µM) | – |
| CCn1cc(C(=O)O)c(=O)c2cc(F)c(N3CCN(c4nccc(N)n4)CC3)cc21 | 4 (≈ 9.7 µM) | 0.5 (≈ 1.21 µM) | 0.5 (≈ 1.21 µM) | 1 (≈ 2.42 µM) | 1 (≈ 2.42 µM) | 0.5 (≈ 1.21 µM) | 0.5 (≈ 1.21 µM) | 0.25 (≈ 0.606 µM) | 0.25 (≈ 0.606 µM) | 16 (≈ 38.8 µM) | 4 (≈ 9.7 µM) | Activity (Calf thymus DNA [10]): Active; log(activity) (Enterococcus faecalis [11]): 2.5; Activity (Calf thymus DNA [12]): Active; fold change (FC) [13]: 2.5; Ratio (Staphylococcus aureus [14]): 4; Ratio (Staphylococcus aureus [15]): 8; viability at 12.5 ug/ml [16]: > 90%; viability at 50 ug/ml [17]: 70%; K (Calf thymus DNA [18]): 1.01 10^5L/mol; inhibition at 2 µg/mL (Enterococcus faecalis [19]): 53.9%; log(activity) (Enterococcus faecalis [20]): 3.5; Ratio (Enterococcus faecalis [21]): 4; Ratio (Enterococcus faecalis [22]): 16; Activity (Calf thymus DNA [23]): Active; MIC (Aspergillus fumigatus): 2 µg/mL (≈ 4.85 µM) |
| O=C(O)c1cn(C2CC2)c2cc(N3CCN(c4ncc(F)cn4)CC3)c(F)cc2c1=O | 128 (≈ 299 µM) | 128 (≈ 299 µM) | 256 (≈ 599 µM) | 1 (≈ 2.34 µM) | 8 (≈ 18.7 µM) | 32 (≈ 74.9 µM) | 8 (≈ 18.7 µM) | 64 (≈ 150 µM) | 8 (≈ 18.7 µM) | 8 (≈ 18.7 µM) | > 256 | Ratio (Staphylococcus aureus [24]): 8; Ratio (Staphylococcus aureus [25]): 2 |
